In patent US20130337579A1, “Methods for Determining Protein Ligand Binding” (UNIVERSITY OF MARYLAND, COLLEGE PARK, priority 2010, published 2013):

What was measured:
[1] = target: T1, P. aeruginosa Alg44PilZ (His-MBP-Alg44PilZ) (Pseudomonas aeruginosa, UniProt Q9HY69); experiment: biochemical; format: binding; settings: 20 μM purified protein; 500 nM 14C-cAMP, 4 nM 32P-ATP or 4 nM 32P-cdiGMP
T1 construct: His-MBP-Alg44PilZ was varied from 100 μM to 6 nM; made in house; host or cells: E. coli BL21(DE3)
Text: DRaCALA exploits the ability of nitrocellulose membranes to preferentially sequester proteins over small molecule ligands. When a mixture of protein and radiolabeled ligand is spotted onto a dry nitrocellulose membrane, protein and bound ligand are immobilized at the site of contact while free ligand is mobilized by capillary action with the liquid phase (FIG. 1A). DRaCALA is a rapid assay, as the capillary action can be completed in less than 5 seconds. […] Because capillary action distributes the unbound ligand throughout the mobile phase, the calculation for the fraction bound (FB) can be corrected for this background (see below for edge effects at the solvent front and annulation of the protein). Therefore, FB is defined by the equation in FIG. 1B, where Iinner is the intensity of signal in the area with protein (inner circle) and Itotal is the total signal of the entire sample (outer circle). The Iinner signal consists of both ligand bound to protein and unbound ligand that has not mobilized beyond the area of the inner circle, which we define as Ibackground. Ibackground can be calculated by subtracting the signal intensity of the Iinner from the total ligand Itotal and adjusting for the relative areas of the inner (Ainner) and outer circles (Atotal) (FIG. 1B).
(§1) Radiolabeled ligands were incubated with each of the proteins and the mixtures were spotted on nitrocellulose. After spreading by capillary action, membranes were dried and quantitated by phosphorimager. […] The specificity of Alg44PilZ binding to cdiGMP was further tested by competition with excess unlabeled nucleotides (400-fold molar excess relative to the Alg44PilZ protein).
Kd can be measured by altering either the protein or ligand concentrations in titration experiments; since DRaCALA detects only the ligand mobility, ligand concentrations can be always held constant. […] Since the assay is completed in less than 5 seconds, DRaCALA can also be used to determine the koff for those protein-ligand complexes with slower off rates. koff was determined for cdiGMP and Alg44PilZ by spotting at the indicated time points after the addition of 1 mM unlabeled cdiGMP to a pre-incubated mixture of Alg44PilZ and ^32P-cdiGMP (FIG. 3C). […] Both edge and annulation effects are explained in FIG. 8. The edge effect is due to evaporation of the solvent during the time of the experiment, and is dependent on the humidity of the local environment around the nitrocellulose support. The evaporation results in a smaller total area (Atotal observed in FIG. 8A) and leads to an increased value in the calculated Ibackground. As a secondary correction for the edge effect, the fraction bound determined for spotted ligand in the absence of protein can be subtracted from all samples in parallel (FIG. 8B).

[2] = target: T2, HisMBP-Alg44PilZ (Pseudomonas aeruginosa, UniProt Q9HY69); experiment: DRaCALA competition of cold nucleotides with 32P-cdiGMP binding to HisMBP-Alg44PilZ; set-up: species or system P. aeruginosa; settings: 1 mM cold nucleotide (400-fold molar excess over protein), 4 nM 32P-cdiGMP
T2 construct: His-MBP-Alg44PilZ was varied from 100 μM to 6 nM; made in house; host or cells: E. coli BL21(DE3)
Description: FIG. 2. Detection of specific protein-ligand interactions by DRaCALA. (A) DRaCALA images of interactions between purified proteins (20 μM) incubated with 500 nM ^14C-cAMP, 4 nM ^32P-ATP, or 4 nM ^32P-cdiGMP. Protein-ligand mixtures were spotted on nitrocellulose and allowed to dry prior to imaging using a Fuji FLA7100 phosphorimager. Cognate protein-nucleotide combinations are indicated by arrowheads. MBP was used as a negative control. (B) DRaCALA images of competition assays assessing the ability of 1 mM of the indicated cold nucleotides to compete with binding interactions between 4 nM ^32P-cdiGMP and 2.5 μM HisMBP-Alg44PilZ. (C) Graph of fraction bound for each sample in […] with averages indicated by a horizontal bar. NC indicates no competitor. P values were determined by a Student's t-test for significant differences when compared to the no-competitor (NC) control for three independent experiments. For total intensity of each DRaCALA spot in FIGS. 2A and 2B, see Tables 1 and 2, respectively.
Radiolabeled ligands were incubated with each of the proteins and the mixtures were spotted on nitrocellulose. After spreading by capillary action, membranes were dried and quantitated by phosphorimager. […] Each of the radiolabel signals from MBP mixtures was distributed by capillary action (FIG. 2A). […] The specificity of Alg44PilZ binding to cdiGMP was further tested by competition with excess unlabeled nucleotides (400-fold molar excess relative to the Alg44PilZ protein). Alg44PilZ binding to ^32P-cdiGMP was abolished by cdiGMP, but not by cGMP, GMP, GDP, GTP, ATP, CTP or UTP as was previously described (FIG. 2B). The FB for cdiGMP was 0.31±0.07, which was reversed by competition with unlabeled cdiGMP to the background level of 0.04±0.01 (FIG. 2C).
(§2) Protein or whole cell lysates in 1× cdiGMP binding buffer (20 μl) was mixed with 4 nM of radiolabeled nucleotide and allowed to incubate for 10 minutes at room temperature. Radiolabeled nucleotide was competed away by cold nucleotides in concentrations and for times indicated. Purified proteins were tested in technical replicates. Whole cell lysates in FIG. 4 and FIG. 12 were tested in biological triplicates. Whole cell lysates in FIG. 5 were tested in technical replicates. These mixtures were pipetted (2.5-5 μl) onto dry, untreated nitrocellulose (GE Healthcare) in triplicate and allowed to dry completely before quantification. An FLA7100 Fujifilm Life Science Phosphorimager was used to detect luminescence following a 5-minute exposure of blotted nitrocellulose to phosphorimager film. Data was quantified using Fujifilm Multi Gauge software v3.0.

[3] = target: T3, E. coli CRP (Escherichia coli, UniProt P0ACJ8); experiment: DRaCALA binding of radiolabeled nucleotides to purified CRP; settings: 20 μM purified protein; 500 nM 14C-cAMP, 4 nM 32P-ATP or 4 nM 32P-cdiGMP
T3 construct: His; made in house
Description: as §1, §2

[4] = target: E. coli NtrB (Escherichia coli, UniProt P0AFB5); experiment: DRaCALA binding of radiolabeled nucleotides to purified NtrB; settings: 20 μM purified protein; 500 nM 14C-cAMP, 4 nM 32P-ATP or 4 nM 32P-cdiGMP
Description: as §1, §2

T2 sequence (Q9HY69 16-116): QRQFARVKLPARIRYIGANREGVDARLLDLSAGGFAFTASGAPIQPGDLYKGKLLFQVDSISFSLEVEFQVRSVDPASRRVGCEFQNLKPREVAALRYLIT
T3 sequence (P0ACJ8 whole entry): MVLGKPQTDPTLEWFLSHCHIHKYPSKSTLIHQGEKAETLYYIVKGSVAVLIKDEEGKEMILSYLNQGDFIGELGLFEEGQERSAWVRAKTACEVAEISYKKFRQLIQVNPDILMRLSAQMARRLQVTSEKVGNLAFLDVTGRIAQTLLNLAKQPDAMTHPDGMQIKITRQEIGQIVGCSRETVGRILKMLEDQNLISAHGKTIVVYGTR
T1 sequence (Q9HY69 16-116): as the sequence (Q9HY69 16-116) above
Chain of E. coli NtrB (P0AFB5 whole entry): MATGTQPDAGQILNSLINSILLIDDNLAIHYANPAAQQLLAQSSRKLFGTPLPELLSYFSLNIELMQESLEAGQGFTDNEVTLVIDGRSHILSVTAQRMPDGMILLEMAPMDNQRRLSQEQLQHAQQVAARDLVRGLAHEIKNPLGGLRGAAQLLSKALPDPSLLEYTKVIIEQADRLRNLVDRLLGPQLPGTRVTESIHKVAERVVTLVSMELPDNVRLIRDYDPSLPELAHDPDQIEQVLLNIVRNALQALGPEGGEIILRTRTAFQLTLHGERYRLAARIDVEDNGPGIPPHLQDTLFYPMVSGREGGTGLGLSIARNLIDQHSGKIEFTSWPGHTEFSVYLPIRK

Row | SMILES | binding to Alg44PilZ (sequestration of radiolabel signal) [1] | Alg44PilZ binding to 32P-cdiGMP abolished by unlabeled nucleotide [2] | binding to CRP (sequestration of radiolabel signal) [3] | binding to NtrB (sequestration of radiolabel signal) [4]
1 | Nc1ncnc2c1ncn2[C@@H]1O[C@H](COP(=O)(O)OP(=O)(O)OP(=O)(O)O)[C@@H](O)[C@H]1O [ATP] | not | not | did not bind | bound
2 | Nc1ccn([C@@H]2O[C@H](COP(=O)(O)OP(=O)(O)OP(=O)(O)O)[C@@H](O)[C@H]2O)c(=O)n1 [CTP] | – | not | – | –
3 | Nc1nc2c(ncn2[C@@H]2O[C@H](COP(=O)(O)OP(=O)(O)O)[C@@H](O)[C@H]2O)c(=O)[nH]1 [GDP] | – | not | – | –
4 | Nc1nc2c(ncn2[C@@H]2O[C@H](COP(=O)(O)O)[C@@H](O)[C@H]2O)c(=O)[nH]1 [GMP] | – | not | – | –
5 | Nc1nc2c(ncn2[C@@H]2O[C@H](COP(=O)(O)OP(=O)(O)OP(=O)(O)O)[C@@H](O)[C@H]2O)c(=O)[nH]1 [GTP] | – | not | – | –
6 | O=c1ccn([C@@H]2O[C@H](COP(=O)(O)OP(=O)(O)OP(=O)(O)O)[C@@H](O)[C@H]2O)c(=O)[nH]1 [UTP] | – | not | – | –
7 | Nc1nc2c(ncn2[C@@H]2O[C@@H]3COP(=O)(O)O[C@H]3[C@H]2O)c(=O)[nH]1 [cGMP] | – | not | – | –
